“And” between values parts separate entries of the source, which are not always exact repeats. Equal values may be shown once.
Tests used:
[1] = system: MDA-435 human breast tumor; assay: In vivo tumor growth inhibition assay, compound plus Paclitaxel given IV to tumor-bearing mice; set-up: species or system CD-1 nu/nu mice; conditions: for % Tumor Growth: vehicle = 100
Procedure: A supplemented media was prepared from 50% DMEM/Dulbecco Modified Eagle Medium (High Glucose), 50% RPMI 1640, 10% FBS/Fetal Bovine Serum (Hybridoma Tested; Sterile Filtered), 1% L-Glutamine, 1% Penicillin-Streptomycin, 1% MEM Sodium Pyruvate and 1% MEM Non-Essential Amino Acids. FBS was obtained from Sigma Chemical Co. and other ingredients were obtained from Invitrogen Life Technologies, USA). The supplemental media was warmed to 37° C. and 50 ml of media was added to a 175 cm^2 tissue culture flask.
The cells used in the assay were MDA-435 Human Breast Carcinoma from the American Type Culture Collection. 1 vial of MDA-435 cells from the liquid nitrogen frozen cell stock was removed. The frozen vial of cells was immediately placed into a 37° C. water bath and gently swirled until thawed. The freeze-vial was wiped with 70% ethanol and cells were immediately pipetted into the 175 cm^2 tissue culture flask containing supplemented media. The cells were incubated overnight and the media was removed and replaced with fresh supplemented media the next day. The flask was incubated until flask became about 90% confluent. This took anywhere from 5-7 days.
The flask was washed with 10 ml of sterile room temperature phosphate buffered saline (PBS). The cells were trypsinized by adding 5 ml of warmed Trypsin-EDTA (Invitrogen) to the flask of cells. […] An equal volume of supplemented media (5 ml) was added to the flask. All the cells were collected into 50 ml tube, and centrifuged at 1000 RPM for 5 minutes at 20° C. The supernatant was aspirated and the cell pellet was resuspended in 10 ml of supplemented media and the cells were counted. 1-3 million cells/flask were seeded into 5-7 tissue culture flasks (175 cm^2). Each flask contained 50 ml of supplemented media. The flasks were incubated until about 90% confluent. The passaging of the cells was repeated until enough cells have been grown for tumor implantation.
The above procedure for trypsinizing and centrifuging the cells were followed. The supernatant was aspirated and the cell pellet was resuspended in 10 ml of sterile PBS and the cells were counted. The cells were centrifuged and then resuspended with appropriate volume of sterile PBS for injection of correct number of cells needed for tumor implantation. In the case of MDA-435, 100 million cells were suspended with 2.0 ml of sterile PBS to a final concentration of 50 million cells/ml in order to inject 5 million cells in 0.1 ml/mouse.
Mice (CD-1 nu/nu) were obtained from Charles River Laboratories: nomenclature: Crl:CD-1-nuBR, Age: 6-8 weeks. The mice were allowed to acclimate for 1 week prior to their being used in an experimental procedure.
Implantation of the MDA-435 tumor cell suspension took place into the corpus adiposum of the female CD-1 nu/nu mouse. […] Tumor cells were implanted subcutaneously into the fat body located in the right quadrant of the abdomen at the juncture of the os coxae (pelvic bone) and the os femoris (femur). 5 million MDA-435 cells in 0.1 ml of sterile PBS were injected using 27 G (½ inch) needle. MDA-435 tumors developed 2-3 weeks after implantation.
Compound stock solutions were prepared by dissolving the compound in cell-culture-grade DMSO (dimethyl sulfoxide) at the desired concentration. This stock solution in DMSO was sonicated in an ultrasonic water bath until all the powder dissolved.

[2] = format: in vivo; conditions: mice treated with Paclitaxel and Compound (1); FIG. 2
Procedure: The in vivo anti-cancer enhancing effect of novel compounds was assessed in tumor bearing mice using the tumor growth inhibition assay. Tumor cells were implanted by injection of a tumor cell suspension subcutaneously in the flank of a mouse. […] Animal then begun a multiple injection schedule where the compound and Paclitaxel were given by IV route of administration. Tumors were measured two times a week. During the course of this assay, animals were monitored daily for signs of toxicity including body weight loss.

## CN(NC(=O)CC(=O)NN(C)C(=S)c1ccccc1)C(=S)c1ccccc1 [Compound (1), N-Malonyl-bis[N′-methyl-N′-(thiobenzoyl)hydrazide]]
[1]; Example 12, FIG. 1: Compound (1) 25 or 50 mg/kg + Paclitaxel 5 mg/kg, IV, 3 times a week for 3 weeks
  Enhancement of anti-tumor activity of Paclitaxel: significantly enhanced anti-tumor activity of Paclitaxel
[1]; Example 13, Day 23, Groups 4-5: compound 80 mg/kg alone, IV, 3 times a week for 3 weeks
  % Tumor Growth: 90%
[1]; Example 13, Day 23, Groups 6 and 8: compound 80 mg/kg + Paclitaxel 2 mg/kg, IV, 3 times a week for 3 weeks
  % Tumor Growth: 64%
[1]; Example 13, Day 23, Groups 7 and 9: compound 80 mg/kg + Paclitaxel 5 mg/kg, IV, 3 times a week for 3 weeks
  % Tumor Growth: 35%
[1]; Example 13, Groups 4-5: compound 80 mg/kg alone, IV, 3 times a week for 3 weeks
  Average Tumor Volume (mm^3) on Day 23: 270.0 mm^3
[1]; Example 13, Groups 6 and 8: compound 80 mg/kg + Paclitaxel 2 mg/kg, IV, 3 times a week for 3 weeks
  Average Tumor Volume (mm^3) on Day 23: 193.3 mm^3
[1]; Example 13, Groups 7 and 9: compound 80 mg/kg + Paclitaxel 5 mg/kg, IV, 3 times a week for 3 weeks
  Average Tumor Volume (mm^3) on Day 23: 106.2 mm^3
[1]; Example 13: compound 80 mg/kg + Paclitaxel at both 2 mg/kg and 5 mg/kg, IV, 3 times a week for 3 weeks
  Enhancement of anti-tumor activity of Paclitaxel: significantly enhanced anti-tumor activity of Paclitaxel
[1]; Example 14, Day 48, Group 3: Compound (1) 50 mg/kg alone, IV, 3 times a week for 3 weeks
  Average Tumor Volume [mm^3]: 754.9 mm^3
[1]; Example 14, Day 48, Group 4: Compound (1) 25 mg/kg + Paclitaxel 10 mg/kg, IV, 3 times a week for 3 weeks
  Average Tumor Volume [mm^3]: 0.59 mm^3
[1]; Example 14, Group 3: Compound (1) 50 mg/kg alone, IV, 3 times a week for 3 weeks
  % Tumor Growth Inhibition on Day 48: 0%
[1]; after 24 days of treatment, Paclitaxel 5 mg/kg + Compound (1) 25 mg/kg versus Paclitaxel 5 mg/kg only or Compound (1) 50 mg/kg only, FIG. 1
  Tumor volume, fold less than with Paclitaxel alone or Compound (1) alone: about five
[2]
  Weight loss over the treatment period: little if any weight loss

## CC(=O)O[C@H]1C(=O)[C@@]2(C)[C@H]([C@H](OC(=O)c3ccccc3)[C@]3(O)C[C@H](OC(=O)[C@H](O)[C@@H](NC(=O)c4ccccc4)c4ccccc4)C(C)=C1C3(C)C)[C@]1(OC(C)=O)CO[C@@H]1C[C@@H]2O [Paclitaxel]
[1]; Example 13, Day 23, Group 2: Paclitaxel 2 mg/kg alone, IV, 3 times a week for 3 weeks
  % Tumor Growth: 86%
[1]; Example 13, Day 23, Group 3: Paclitaxel 5 mg/kg alone, IV, 3 times a week for 3 weeks
  % Tumor Growth: 55%
[1]; Example 13, Group 2: Paclitaxel 2 mg/kg alone, IV, 3 times a week for 3 weeks
  Average Tumor Volume (mm^3) on Day 23: 259.8 mm^3
[1]; Example 13, Group 3: Paclitaxel 5 mg/kg alone, IV, 3 times a week for 3 weeks
  Average Tumor Volume (mm^3) on Day 23: 164.8 mm^3
[1]; Example 14, Day 48, Group 2: Paclitaxel 10 mg/kg alone, IV, 3 times a week for 3 weeks
  Average Tumor Volume [mm^3]: 105 mm^3 and 105.4 mm^3
[1]; Example 14, Group 2: Paclitaxel 10 mg/kg alone, IV, 3 times a week for 3 weeks
  % Tumor Growth Inhibition on Day 48: 86%
[1]; Example 14: Paclitaxel 10 mg/kg alone, IV, 3 times a week for 3 weeks
  Anti-tumor activity: significant anti-tumor activity was observed
[1]; Example 15, Group 2: Paclitaxel 5 mg/kg alone, IV, 3 times a week for 3 weeks
  Average % Tumor Growth Inhibition on Day 27: 19%

Reference: US7671092B2, “Paclitaxel enhancer compounds” (Synta Pharmaceuticals Corp., priority 2001, dated 2010)
